PMC8268575 (International Journal of Molecular Sciences, 2021)
“Also recorded” adds a separate entry of the source.

Columns and labels:
[1] = HAoEC, 10,000 cells per well, in assay medium; supernatant analysed; conditions: human, 37 °C, up to 24 h
PRCP [2] = experiment: in vitro; conditions: cited from earlier work
[3] = human plasma of healthy volunteers; conditions: cited from earlier work
mouse plasma = conditions: cited from earlier work
[4] = 24 h cellular supernatant of HUVEC (assay medium), in the absence of cells; conditions: human, 37 °C, up to 1 h
Recombinant human PREP [5] = experiment: Recombinant human PREP at pH 7.4 (0.1 M potassium phosphate, 1 mM EDTA and 5 mM DTT); conditions: up to 1 h
rat plasma = conditions: cited from earlier work
[6] = HUVEC, 10,000 cells per well, in assay medium; supernatant analysed; conditions: human, 37 °C, up to 24 h
human plasma = conditions: cited from earlier work
[7] = system: Angiotensin-converting enzyme 2 (ACE2, EC 3.4.17.23); conditions: cited from earlier work
HUVEC = experiment: Substrate cleavage in HUVEC, supernatant analysed by MALDI-TOF/TOF; format: in vitro ADME, human; conditions: PRCP-inhibited (1 µM compound 8o) or PRCP/ACE2-inhibited HUVEC compared with control or ACE2-inhibited (1 µM DX600) HUVEC, 100 µM (pyr)-apelin-13, n = 4
Method: (§1) The experiment was independently conducted 4 times. […] The supernatants were desalted and concentrated by use of C18 ZipTips (Merck-Millipore, Burlington, MA, USA) and eluted directly on the MALDI target in 70% acetonitrile/0.1% TFA. Subsequently, a MALDI matrix solution of 2.5 mg/mL α-cyano-4-hydroxycinnamic acid in 70% acetonitrile/0.1% TFA was applied on each spot, air-dried at room temperature, and the target was introduced into a 4800 plus MALDI TOF/TOF^TM Analyzer. Mass spectrometry (MS) spectra (mass range: 600–4000 Da) were acquired in positive reflector mode with a laser intensity of 5000. To confirm the identity of the most important peptides, MS/MS spectra were generated by use of collision induced dissociation with a laser intensity of 5500. Calibration was done during analysis using the 6-peptide mixture (AB Sciex, Framingham, MA, USA). Mass spectra were generated by use of the 4000 Series Explorer and analyzed by mMas. […] The ratio of the peak intensity of the cleaved substrate to the peak intensity of the intact substrate is an indication for the C-terminal cleavage of the substrates. To check for additional cleavage sites, a search for other product peaks was completed. Statistical analysis was performed using SPSS software version 27 (IBM). Two-way ANOVA analysis was conducted to examine the effect of the two independent variables (treatment duration and treatment option) on the ratio of the peak intensities.

HAoEC = experiment: Substrate cleavage in HAoEC, supernatant analysed by MALDI-TOF/TOF; format: in vitro ADME, human; conditions: all inhibitor-treated HAoEC (1 µM compound 8o, 1 µM DX600 or both) compared with control, 100 µM (pyr)-apelin-13, n = 4
Method: as §1

recombinant human PREP [8] = target: T1, recombinant human PREP (Homo sapiens, UniProt P48147); experiment: Cleavage by recombinant PREP, MALDI-TOF/TOF; conditions: pH 7.4 (0.1 M potassium phosphate, 1 mM EDTA, 5 mM DTT), 100 µM substrate, 0 s to 1 h
T1 sequence (P48147 1-710): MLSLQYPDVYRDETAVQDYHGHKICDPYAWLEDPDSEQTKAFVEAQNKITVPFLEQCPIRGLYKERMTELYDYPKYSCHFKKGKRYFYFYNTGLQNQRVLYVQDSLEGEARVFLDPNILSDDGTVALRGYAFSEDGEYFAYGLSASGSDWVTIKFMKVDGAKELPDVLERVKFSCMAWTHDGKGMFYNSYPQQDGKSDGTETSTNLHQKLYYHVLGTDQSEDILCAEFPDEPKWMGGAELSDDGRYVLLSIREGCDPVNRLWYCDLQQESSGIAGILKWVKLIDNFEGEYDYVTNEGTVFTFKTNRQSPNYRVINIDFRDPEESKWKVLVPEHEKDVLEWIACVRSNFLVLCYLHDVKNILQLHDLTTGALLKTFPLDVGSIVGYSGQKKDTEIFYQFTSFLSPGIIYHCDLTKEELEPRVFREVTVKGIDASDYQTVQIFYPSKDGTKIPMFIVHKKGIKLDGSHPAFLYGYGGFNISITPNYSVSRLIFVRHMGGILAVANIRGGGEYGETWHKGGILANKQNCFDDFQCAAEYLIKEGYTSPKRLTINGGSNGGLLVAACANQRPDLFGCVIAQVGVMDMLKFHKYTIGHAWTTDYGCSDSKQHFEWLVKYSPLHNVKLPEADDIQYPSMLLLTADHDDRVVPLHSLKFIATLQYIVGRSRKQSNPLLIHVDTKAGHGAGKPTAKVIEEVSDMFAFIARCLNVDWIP
Method: Supplementary Material File S3. Cleavage by recombinant PREP
Recombinant human PREP, expressed in BL21 (DE3) cells as previously described, was […]
(Laboratory for Medicinal Chemistry, University of Antwerp) or vehicle control at pH 7.4 (0.1 M potassium phosphate, 1 mM EDTA and 5 mM DTT). 100 μM substrate ((pyr)-apelin-13, (pyr)-apelin-13(1-12), Ang II or α-MSH 1-13) or vehicle control (PBS) was added. The reaction was stopped by acidification (pH<3) with 0.1% TFA after different time periods (0 s, 30 s, 1 min, 5 min, 15 min, 30 min or 1 h) and samples were stored at -80 °C.
A search for product peaks of the different peptides was conducted.
1. Van Elzen, R.; Schoenmakers, E.; Brandt, I.; Van Der Veken, P.; Lambeir, A.M.
Ligand-induced conformational changes in prolyl oligopeptidase: A kinetic approach.

ACE2 [9] = experiment: ACE2 activity (Mca-Ala-Pro-Lys(Dnp)-OH) after pro-inflammatory stimulation of HAoEC; format: cell-based, human; conditions: 16 h, 200 ng/mL LPS, 10 ng/mL TNFα or 5 ng/mL IL-1β, n = 4-6, p = 0.422
Method: (§2) Supplementary Material File S2. ACE2 activity measurement
(§3) HUVEC and HAoEC were seeded in a 6-well plate at a density of 2.5x10^5 cells per well in 2 mL full medium for 24 h. Cells were treated with 200 ng/mL LPS, 10 ng/mL TNFα, 5 ng/mL IL-1β or vehicle control for 16 h. Supernatants were collected and concentrated four times using Centriprep Centrifugal Filter Devices, 30 K (Merck-Millipore). Cells were collected per well and lysed 1 h on ice in 75 µL lysis buffer (1% octyl glucoside, 10 mM EDTA, 70 µg/mL aprotinin, 50 mM Tris pH 8.3).
(§4) ACE2 activity was measured using the substrate Mca-Ala-Pro-Lys(Dnp)-OH (Bachem).
(§5) Samples were incubated with 100 µM of the substrate at pH 6.5 (50 mM MES, 300 mM NaCl, 10 µM Zn Cl2, 0.01% Triton X-100) in a black 96-well plate and ACE2 activity was measured kinetically for 1 h at 37 °C (λex=320 nm, λem=405 nm), using the Infinite 200 microplate reader (Tecan) and the Magellan software was used to process the data. Concentration of the generated Mca-Ala-Pro was determined by means of a standard curve. Specificity was determined by pre-incubating the samples for 15 min with 1 µM of the specific ACE2-inhibitor DX600. The ACE2 activity is expressed as units per gram (U/g) protein for the cell lysate. […] Protein concentrations were determined via the Bradford method with BSA as the standard protein. […]

PRCP [10] = experiment: PRCP activity (RP-HPLC, Z-Pro-Phe) after pro-inflammatory stimulation of HAoEC; format: cell-based, human; conditions: 16 h, 200 ng/mL LPS, 10 ng/mL TNFα or 5 ng/mL IL-1β; for PRCP activity in the cell lysate versus vehicle control: Kruskal-Wallis p = 0.563; for PRCP activity in the supernatant versus vehicle control: n = 4–6
Method: (§6) HUVEC and HAoEC were seeded in a 6-well plate at a density of 2.5 × 10^5 cells per well in 2 mL full medium for 24 h. Subsequently, cells were treated with 200 ng/mL LPS, 10 ng/mL TNFα, 5 ng/mL IL-1β, or vehicle control for 16 h. Subsequently, supernatants were collected and concentrated four times for PRCP activity measurements using Centriprep® Centrifugal Filter Devices, 30 K (Merck-Millipore, Burlington, MA, USA). For PRCP activity measurement, cells were collected per well and lysed 1 h on ice in 75 µL lysis buffer (1% octylglucoside, 10 mM EDTA, 70 µg/mL aprotinin, 50 mM Tris pH 8.3). Appropriate stimulation was confirmed by determining interleukin-6 (IL-6) and interleukin-8 (IL-8) levels in the 16 h aspirate by use of ELISA (Supplementary Materials File S7).
(§7) PRCP activity was measured in the cellular supernatant and cell lysate using a validated high-performance liquid chromatography (HPLC) method as described previously. Ten µL of each sample was incubated in duplicate with 75 µL 8 mM Z-Pro-Phe at pH 5 (0.1 M Natrium Acetate, 10 mM EDTA) for 2 h at 37 °C. To stop the enzymatic reaction, 75 µL stop solution (10% perchloric acid and 20% acetonitrile in purified water) was added and samples were centrifuged at 12,000× g for 10 min at 4 °C. Ten µL of the supernatant was injected into a reversed phase HPLC system (Shimadzu, Kioto, Japan) and the enzymatically formed Z-Pro was determined by its UV absorbance at 210 nm. Quantification was performed by peak height measurements. The PRCP activity is expressed as units per gram (U/g) protein for the cell lysate or units per liter (U/L) for the supernatant. One unit defines the amount of enzyme that hydrolyses 1 μmol of substrate per minute. Protein concentrations were determined via the Bradford method with bovine serum albumin as the standard protein. Statistical analyses were performed using SPSS software version 27 (IBM) and graphs were designed using Graphpad Prism 9 software. Differences in PRCP activity in the cell lysate and supernatant between control and stimulated cells were evaluated by Kruskal-Wallis and Mann-Whitney U-tests. Manual Bonferroni-correction was assessed for multiple testing based on relevant pairwise comparisons. Significant results are indicated with an asterisk (* p < 0.05, ** p < 0.01).

ACE2 [11] = experiment: ACE2 activity (Mca-Ala-Pro-Lys(Dnp)-OH) after pro-inflammatory stimulation of HUVEC; format: cell-based, human; conditions: 16 h, 200 ng/mL LPS, 10 ng/mL TNFα or 5 ng/mL IL-1β, n = 4-6, p = 0.098
Method: as §2, §3, §4, §5

PRCP [12] = experiment: PRCP activity (RP-HPLC, Z-Pro-Phe) after pro-inflammatory stimulation of HUVEC; format: cell-based, human; conditions: 16 h, 200 ng/mL LPS, 10 ng/mL TNFα or 5 ng/mL IL-1β; for PRCP activity in the cell lysate versus vehicle control: Kruskal-Wallis p = 0.066; for PRCP activity in the supernatant versus vehicle control: n = 4–6
Method: as §6, §7

Compound	cleaved bond [1]	cleaved bond [6]	ACE2 activity in the cell lysate versus vehicle control (ACE2 [9])	PRCP activity in the cell lysate versus vehicle control (PRCP [10])	PRCP activity in the supernatant versus vehicle control (PRCP [10])	ACE2 activity in the cell lysate versus vehicle control (ACE2 [11])	PRCP activity in the cell lysate versus vehicle control (PRCP [12])	PRCP activity in the supernatant versus vehicle control (PRCP [12])	other results
pERPRLSHKGPMPF	P12-Phe13, 8 h; also recorded: Ser6-His7, 8 h	P12-Phe13, 24 h							cleaved bond (PRCP [2]): P12-Phe13; fragment found [3]: (pyr)-apelin-13(1-6); cleaved bond (mouse plasma): Leu5-Ser6, first_seen; also recorded: Ser6-His7; cleaved bond [4]: P12-Phe13, 1 h; not cleaved (Recombinant human PREP [5]): Only the peaks corresponding with the intact peptides could be observed; cleaved bond (rat plasma): Leu5-Ser6, first_seen; also recorded: Ser6-His7; not cleaved [6]: In HUVEC, this product could not be detected; cleaved bond (human plasma): Leu5-Ser6, first_seen; also recorded: Ser6-His7; cleaved bond [7]: P12-Phe13
Ac-SYSMEHFRWGKPV-NH₂	P12-V13	P12-V13							fragment found [1]: α-MSH 1-10; fragment found [6]: α-MSH 1-10
CSCC[C@H](NC(=O)[C@@H]1CCCN1C(=O)CNC(=O)[C@H](CCCCN)NC(=O)[C@H](Cc1c[nH]cn1)NC(=O)[C@H](CO)NC(=O)[C@H](CC(C)C)NC(=O)[C@H](CCCNC(=N)N)NC(=O)[C@@H]1CCCN1C(=O)[C@H](CCCNC(=N)N)NC(=O)[C@@H]1CCC(=O)N1)C(=O)N1CCC[C@H]1C(=O)O [(pyr)-apelin-13(1–12)]									(pyr)-apelin-13(1–12) detected in supernatant after 24 h (HUVEC): Significantly less; (pyr)-apelin-13(1–12) observed in supernatant after 24 h (HAoEC): significantly less; Cleavage by recombinant human PREP (recombinant human PREP [8]): did not cleave
TNFα			No difference	no difference	increase in PRCP activity	No difference	no difference	increase in PRCP activity	
IL-1β: pro-inflammatory stimulus, 5 ng/mL			No difference	no difference	increase in PRCP activity	No difference	no difference	increase in PRCP activity	
